Measured values published in US8071558B2, “Application of D-psicose to suppression of abnormal circadian increase in blood glucose level” (Rare Sugar Production Technical Research Laboratories, LLC., priority 2005, dated 2011).
One block for each compound: values may come before it.

Columns and labels:
Male Wistar rats [1] = assay: Oral glucose tolerance test: influence of D-psicose on the reaction of increasing blood glucose; format: in vivo, rat; settings: for blood glucose level compared with single administration of D-glucose: minutes after administration; for increase of the blood glucose level: oral D-glucose 2 g/kg with test sugar 0.32 g/kg (16% of D-glucose) simultaneously
Procedure: Male Wistar rats of age 6 months were fed ad libitum under a condition that the bright cycle was at a temperature of 25° C. and a humidity of 50 to 70% from 8:00 am to 20:00 pm, for preliminary feeding for one week. On the day before the experiment, the rats were fasted for 12 hours and subsequently orally given D-glucose at 2 g/kg (in the form of 50% glucose solution) using a probe. Blood was drawn before the dosing and 30, 60, 90, 120, 150 and 180 minutes after the dosing. Blood glucose level was measured with a blood glucose meter. Alternatively, D-fructose or D-psicose at 0.32 g/kg (at 16% of D-glucose) was simultaneously given with D-glucose at 2 g/kg. In the same manner, blood glucose level was measured. Based on the resulting blood glucose levels, the area under the curve of blood glucose level (ΔAUC) was calculated.

Male Wistar rats [2] = assay: Soluble starch administration experiment, plasma glucose; format: in vivo, rat; settings: for Plasma glucose level, 0 min: before soluble starch 2 g/kg + test sugar 200 mg/kg; for Plasma glucose level, 30 min / Plasma glucose level, 60 min / Plasma glucose level, 90 min / Plasma glucose level, 120 min / ΔAUC of plasma glucose level: soluble starch 2 g/kg + test sugar 200 mg/kg; for action to suppress the increase of blood glucose level: given simultaneously with soluble starch (experiment 3)
Procedure: (§1) Thirty-six male Wistar rats of age 6 months are divided into 6 groups. The following sugars were given to the rats in the individual groups after 12-hour fasting. Before the administration and 30, 60, 90, 120 and 180 minutes after the administration, blood is drawn from the tail vein, to assay plasma glucose and insulin concentration.
1. Soluble starch 2 g/kg (SS)
2. Soluble starch 2 g/kg+L-arabinose 200 mg/kg (SSA)
3. Soluble starch 2 g/kg+D-xylose 200 mg/kg (SSX)
4. Soluble starch 2 g/kg+D-fructose 200 mg/kg (SSF)
5. Soluble starch 2 g/kg+D-psicose 200 mg/kg (SSP)
6. Soluble starch 2 g/kg+(fructose 150 mg/kg+psicose 50 mg/kg) (SSFP)
(§2) Before the administration and 30, 60, 90, 120 and 180 minutes after the administration, plasma glucose level was assayed. The plasma glucose level 180 minutes later was used to calculate the area under the curve of plasma glucose level (ΔAUC).

[3] = test system: diabetic rats (fatty Zucker rats); settings: cited from earlier work
sucrase = biological target: T1, sucrase (Rattus norvegicus, UniProt P23739); assay: Sucrose administration experiment (inhibition of sucrase in vivo), plasma glucose; settings: rats; for Plasma glucose level, 0 min: before sucrose 2 g/kg + test sugar 200 mg/kg; for Plasma glucose level, 30 min / Plasma glucose level, 60 min / Plasma glucose level, 90 min / Plasma glucose level, 120 min / ΔAUC of plasma glucose level: sucrose 2 g/kg + test sugar 200 mg/kg
T1 construct: from tissue; host or cells: small intestine of live male Wistar rats (oral sugar load)
Procedure: Sucrose 2 g/kg+L-arabinose 200 mg/kg (SA)
Sucrose 2 g/kg+D-xylose 200 mg/kg (SX)
Sucrose 2 g/kg+D-fructose 200 mg/kg (SF)
Sucrose 2 g/kg+D-psicose 200 mg/kg (SP)
Sucrose 2 g/kg+(fructose 150 mg/kg+psicose 50 mg/kg) (SFP)

maltase = assay: Maltose administration experiment (inhibition of maltase in vivo), plasma glucose; set-up: species or system rat; settings: rats; for Plasma glucose level, 0 min: before maltose 2 g/kg + test sugar 200 mg/kg; for Plasma glucose level, 30 min / Plasma glucose level, 60 min / Plasma glucose level, 90 min / Plasma glucose level, 120 min / ΔAUC of plasma glucose level: maltose 2 g/kg + test sugar 200 mg/kg; for action to suppress the increase of blood glucose level: given simultaneously with maltose (experiment 2)
Procedure: as §1
2. Maltose 2 g/kg+L-arabinose 200 mg/kg (MA)
3. Maltose 2 g/kg+D-xylose 200 mg/kg (MX)
4. Maltose 2 g/kg+D-fructose 200 mg/kg (MF)
5. Maltose 2 g/kg+D-psicose 200 mg/kg (MP)
6. Maltose 2 g/kg+(fructose 150 mg/kg+psicose 50 mg/kg) (MFP)
as §2

pancreatic island cells = settings: in vitro; cited from earlier work
Male Wistar rats [4] = assay: Influence of D-psicose diet on liver weight and composition (16-week feeding); format: in vivo, rat; settings: 16 weeks
Procedure: Twenty-four male Wistar rats of age 3 weeks were fed ad libitum under a condition that the bright cycle was at a temperature of 25° C. and a humidity of 50 to 70% from 8:00 am to 20:00 pm, for preliminary feeding for one week. Subsequently, the rats were divided into 4 groups, each group consisting of 6 rats. The groups were defined a high fat/D-psicose diet (HF-P) group; a high fat/cellulose diet (HF-C) group; a low fat/D-psicose diet (LF-P) group; and a low fat/cellulose diet (LF-C) group. 20% beef fat and 5% soybean oil were used to prepare the high fat diets. 5% soybean oil was used to prepare the low fat diets. 5% D-psicose or cellulose was added to the individual diets. These rats were fed these experimental diets and water ad libitum for 16 weeks. On the last day of the experiment, the rats were decapitated and sacrificed to death, from which liver, flounder muscle and intraperitoneal fat tissues were resected. Glycogen, neutral fat and protein were assayed in the liver, while glycogen content was assayed in the flounder muscle. [table]

liver [5] = settings: in vivo; cited from earlier work
α-glucosidase = settings: in vitro; cited from earlier work
Male Wistar rats [6] = assay: Intra-day variation of plasma glucose concentration in rats fed 5% sugar diets; format: in vivo, rat; settings: 5% in diet, fed twice daily for 8 weeks
Text: Forty male Wistar rats of age 3 weeks were preliminarily fed for one week and then divided into 4 groups. Then, a control diet (AIN-76A), and the control diet with addition of 5% D-fructose, the control diet with addition of 5% D-psicose, and the control diet with addition of 5% psico-rare sugar were fed to the rats, twice daily (at 8 to 9 am and at 20 to 21 pm) ad libitum for 8 weeks. At 2 am, 6 am, 10 am, 14 pm, 18 pm and 22 pm on the week 7 or 8 of the feeding, blood was drawn from the tail veins of the rats. Plasma was separated from the blood to assay glucose concentration.

liver [7] = settings: D-psicose added up to 20% of the weight of the feeds; cited from earlier work
liver [8] = settings: in vivo; cited from earlier work; remark: listed apart in the source
[9] = D-glucose 2 g/kg + 0.32 g/kg test sugar

T1 sequence (P23739 whole entry): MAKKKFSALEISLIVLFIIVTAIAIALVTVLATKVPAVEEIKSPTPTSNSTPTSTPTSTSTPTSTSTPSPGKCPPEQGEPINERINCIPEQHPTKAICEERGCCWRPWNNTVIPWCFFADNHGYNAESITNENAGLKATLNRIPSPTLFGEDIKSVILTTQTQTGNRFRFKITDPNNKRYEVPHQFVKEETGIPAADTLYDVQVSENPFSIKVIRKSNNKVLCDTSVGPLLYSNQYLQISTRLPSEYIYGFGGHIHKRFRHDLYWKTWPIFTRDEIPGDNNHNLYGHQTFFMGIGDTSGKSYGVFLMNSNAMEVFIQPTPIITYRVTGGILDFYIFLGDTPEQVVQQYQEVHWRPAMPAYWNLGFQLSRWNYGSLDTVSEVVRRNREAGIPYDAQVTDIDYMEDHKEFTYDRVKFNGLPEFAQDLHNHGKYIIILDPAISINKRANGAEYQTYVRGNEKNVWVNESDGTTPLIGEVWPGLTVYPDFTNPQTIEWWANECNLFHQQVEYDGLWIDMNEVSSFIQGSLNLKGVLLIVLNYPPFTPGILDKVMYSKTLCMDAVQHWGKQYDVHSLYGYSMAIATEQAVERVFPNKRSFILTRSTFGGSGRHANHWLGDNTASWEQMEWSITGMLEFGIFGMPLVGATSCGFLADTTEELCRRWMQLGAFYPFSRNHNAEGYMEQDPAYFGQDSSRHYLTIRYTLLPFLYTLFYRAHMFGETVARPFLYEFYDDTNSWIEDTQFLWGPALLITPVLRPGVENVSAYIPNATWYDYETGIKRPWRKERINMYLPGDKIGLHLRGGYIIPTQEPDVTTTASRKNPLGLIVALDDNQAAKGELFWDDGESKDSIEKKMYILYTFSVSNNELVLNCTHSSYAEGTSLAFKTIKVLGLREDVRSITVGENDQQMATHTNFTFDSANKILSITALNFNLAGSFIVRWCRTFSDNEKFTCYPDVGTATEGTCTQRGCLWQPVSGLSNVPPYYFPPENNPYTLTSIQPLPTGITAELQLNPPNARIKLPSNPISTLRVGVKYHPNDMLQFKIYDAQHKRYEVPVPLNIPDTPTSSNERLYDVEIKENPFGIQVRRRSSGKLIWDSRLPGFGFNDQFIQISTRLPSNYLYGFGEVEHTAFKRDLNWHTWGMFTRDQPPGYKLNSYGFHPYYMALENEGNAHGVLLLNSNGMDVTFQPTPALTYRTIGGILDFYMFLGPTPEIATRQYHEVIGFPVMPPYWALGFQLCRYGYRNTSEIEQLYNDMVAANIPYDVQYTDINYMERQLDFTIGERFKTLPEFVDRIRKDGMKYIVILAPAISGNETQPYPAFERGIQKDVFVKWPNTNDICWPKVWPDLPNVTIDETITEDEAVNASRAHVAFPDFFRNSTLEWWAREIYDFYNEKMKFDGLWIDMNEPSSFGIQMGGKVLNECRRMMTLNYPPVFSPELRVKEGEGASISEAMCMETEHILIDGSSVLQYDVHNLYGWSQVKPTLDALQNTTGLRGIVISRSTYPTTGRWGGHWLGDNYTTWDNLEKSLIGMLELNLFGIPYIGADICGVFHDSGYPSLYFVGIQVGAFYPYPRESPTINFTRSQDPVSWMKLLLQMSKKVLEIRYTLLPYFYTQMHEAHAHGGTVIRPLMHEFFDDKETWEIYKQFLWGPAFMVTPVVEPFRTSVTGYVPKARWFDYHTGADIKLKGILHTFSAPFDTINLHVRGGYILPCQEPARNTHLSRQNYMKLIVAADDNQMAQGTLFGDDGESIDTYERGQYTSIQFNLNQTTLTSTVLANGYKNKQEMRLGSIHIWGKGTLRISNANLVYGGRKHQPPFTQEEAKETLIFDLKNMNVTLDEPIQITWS

SMILES: O=C(CO)[C@@H](O)[C@H](O)[C@H](O)CO [D-fructose]
- ΔAUC of blood glucose level compared with single D-glucose administration (Male Wistar rats [1]; [9]): significantly low
- blood glucose level compared with single administration of D-glucose (Male Wistar rats [1]; [9]): significantly low in 90 and 120 minutes
- increase of the blood glucose level (Male Wistar rats [1]): suppressed
- Plasma glucose level, 0 min (Male Wistar rats [2]): 92 ± 4 mg/dL
- Plasma glucose level, 30 min (Male Wistar rats [2]): 130 ± 15 mg/dL
- Plasma glucose level, 60 min (Male Wistar rats [2]): 137 ± 21 mg/dL
- Plasma glucose level, 90 min (Male Wistar rats [2]): 132 ± 13 mg/dL
- Plasma glucose level, 120 min (Male Wistar rats [2]): 130 ± 13 mg/dL
- ΔAUC of plasma glucose level (Male Wistar rats [2]): 4243 min^− mg/dl
- reaction of increasing blood glucose via D-glucose and maltodextrin [3]: suppressed
- Plasma glucose level, 0 min (sucrase): 97 mg/dL
- Plasma glucose level, 30 min (sucrase): 134 ± 13 ab mg/dl
- Plasma glucose level, 60 min (sucrase): 148 ± 12 ab mg/dl
- Plasma glucose level, 90 min (sucrase): 147 ± 9 ab mg/dl
- Plasma glucose level, 120 min (sucrase): 141 ± 7 mg/dL
- ΔAUC of plasma glucose level (sucrase): 4732 min^− mg/dl
- Plasma glucose level, 0 min (maltase): 81 ± 10 mg/dL
- Plasma glucose level, 30 min (maltase): 139 ± 15 mg/dL
- Plasma glucose level, 60 min (maltase): 156 ± 20 ab mg/dl
- Plasma glucose level, 90 min (maltase): 152 ± 10 mg/dL
- Plasma glucose level, 120 min (maltase): 142 ± 12 mg/dL
- ΔAUC of plasma glucose level (maltase): 7031 min^− mg/dl

SMILES: O=C(CO)[C@H](O)[C@H](O)[C@H](O)CO [D-psicose]
- increasing rate of blood glucose level compared with D-fructose (Male Wistar rats [1]; [9]): likely reduced
- ΔAUC of blood glucose level compared with single D-glucose administration (Male Wistar rats [1]; [9]): significantly low
- blood glucose level compared with single administration of D-glucose (Male Wistar rats [1]; [9]): significantly low in 60, 90 and 120 minutes
- increase of the blood glucose level (Male Wistar rats [1]): suppressed
- Plasma glucose level, 0 min (Male Wistar rats [2]): 91 ± 10 mg/dL
- action to suppress the increase of blood glucose level (Male Wistar rats [2]): the effect was low
- Plasma glucose level, 30 min (Male Wistar rats [2]): 128 ± 12 mg/dL
- Plasma glucose level, 60 min (Male Wistar rats [2]): 123 ± 21 mg/dL
- Plasma glucose level, 90 min (Male Wistar rats [2]): 121 ± 17 mg/dL
- Plasma glucose level, 120 min (Male Wistar rats [2]): 122 ± 16 mg/dL
- ΔAUC of plasma glucose level (Male Wistar rats [2]): 3344 min^− mg/dl
- insulin secretion from pancreatic island cells (pancreatic island cells): promoted
- liver weight, effect of addition of D-psicose (Male Wistar rats [4]; 5% in diet, irrespective of the fat content, vs cellulose diet): increased
- hepatic glycogen content, effect of addition of D-psicose (Male Wistar rats [4]; 5% in diet, vs cellulose diet): tended to increase
- protein content per liver, effect of addition of D-psicose (Male Wistar rats [4]; 5% in diet, vs cellulose diet): significantly increased
- weight of intraperitoneal fat tissues, effect of addition of D-psicose (Male Wistar rats [4]; 5% in diet, vs cellulose diet): no influence
- Flounder muscle weight (Male Wistar rats [4]; high fat diet + 5% D-psicose): 210 ± 8 mg
- Liver weight (Male Wistar rats [4]; high fat diet + 5% D-psicose): 9.5 ± 0.5 g
- Weight of intraperitoneal fat tissues (Male Wistar rats [4]; high fat diet + 5% D-psicose): 27 ± 2 g
- Flounder muscle weight (Male Wistar rats [4]; low fat diet + 5% D-psicose): 209 ± 10 mg
- Liver weight (Male Wistar rats [4]; low fat diet + 5% D-psicose): 13.2 ± 0.3 g
- Weight of intraperitoneal fat tissues (Male Wistar rats [4]; low fat diet + 5% D-psicose): 23 ± 1 g
- toxicity causing the deterioration of the hepatic function (liver [5]): no toxicity
- α-glucosidase inhibition (α-glucosidase): inhibits
- increment of the area under the curve of plasma glucose concentration (ΔAUC) based on 8 am, compared with control and D-fructose groups (Male Wistar rats [6]): significantly small
- plasma glucose concentration compared with the control group and the D-fructose group (Male Wistar rats [6]; week 7 or 8): low throughout the day
- Plasma glucose level, 0 min (sucrase): 89 mg/dL
- increase of blood glucose level up to 60 minutes after the administration, compared with sucrose alone (sucrase; given simultaneously with sucrose): suppressed
- Plasma glucose level, 30 min (sucrase): 128 ± 12 ab mg/dl
- Plasma glucose level, 60 min (sucrase): 139 ± 13 ab mg/dl
- Plasma glucose level, 90 min (sucrase): 150 ± 20 a mg/dl
- Plasma glucose level, 120 min (sucrase): 143 ± 28 mg/dL
- ΔAUC of plasma glucose level (sucrase): 5339 min^− mg/dl
- liver weight per body weight (liver [7]): tended to increase
- Plasma glucose level, 0 min (maltase): 82 ± 8 mg/dL
- action to suppress the increase of blood glucose level (maltase): the effect was low
- Plasma glucose level, 30 min (maltase): 125 ± 21 mg/dL
- Plasma glucose level, 60 min (maltase): 147 ± 16 b mg/dl
- Plasma glucose level, 90 min (maltase): 146 ± 14 mg/dL
- Plasma glucose level, 120 min (maltase): 132 ± 13 mg/dL
- ΔAUC of plasma glucose level (maltase): 5887 min^− mg/dl

SMILES: O=C(CO)[C@@H](O)[C@@H](O)[C@H](O)CO [D-tagatose]
- histological change of liver (liver [8]): never involved any histological change of liver

Now from value to compound, other results behind:

- Plasma glucose level, 0 min (sucrase): 102 mg/dL
- Plasma glucose level, 30 min (sucrase): 123 ± 11 b mg/dl
- Plasma glucose level, 60 min (sucrase): 126 ± 12 b mg/dl
- Plasma glucose level, 90 min (sucrase): 130 ± 13 b mg/dl
- Plasma glucose level, 120 min (sucrase): 137 ± 16 mg/dL
- ΔAUC of plasma glucose level (sucrase): 2646 min^− mg/dl
SMILES: O=C[C@H](O)[C@@H](O)[C@H](O)CO [D-xylose]
- Plasma glucose level, 0 min (Male Wistar rats [2]): 99 ± 10 mg/dL
- action to suppress the increase of blood glucose level (Male Wistar rats [2]): scarcely suppressed
- Plasma glucose level, 30 min (Male Wistar rats [2]): 141 ± 8 mg/dL
- Plasma glucose level, 60 min (Male Wistar rats [2]): 135 ± 12 mg/dL
- Plasma glucose level, 90 min (Male Wistar rats [2]): 138 ± 16 mg/dL
- Plasma glucose level, 120 min (Male Wistar rats [2]): 131 ± 12 mg/dL
- ΔAUC of plasma glucose level (Male Wistar rats [2]): 4040 min^− mg/dl
- Plasma glucose level, 0 min (maltase): 86 ± 8 mg/dL
- action to suppress the increase of blood glucose level (maltase): scarcely suppressed
- Plasma glucose level, 30 min (maltase): 146 ± 14 mg/dL
- Plasma glucose level, 60 min (maltase): 172 ± 12 a mg/dl
- Plasma glucose level, 90 min (maltase): 166 ± 20 mg/dL
- Plasma glucose level, 120 min (maltase): 150 ± 19 mg/dL
- ΔAUC of plasma glucose level (maltase): 7765 min^− mg/dl

- Plasma glucose level, 0 min (sucrase): 93 mg/dL
- Plasma glucose level, 30 min (sucrase): 139 ± 21 ab mg/dl
- Plasma glucose level, 60 min (sucrase): 142 ± 21 ab mg/dl
- Plasma glucose level, 90 min (sucrase): 139 ± 14 ab mg/dl
- Plasma glucose level, 120 min (sucrase): 142 ± 18 mg/dL
- ΔAUC of plasma glucose level (sucrase): 4978 min^− mg/dl
SMILES: O=C[C@H](O)[C@@H](O)[C@@H](O)CO [L-arabinose]
- Plasma glucose level, 0 min (Male Wistar rats [2]): 97 ± 9 mg/dL
- action to suppress the increase of blood glucose level (Male Wistar rats [2]): scarcely suppressed
- Plasma glucose level, 30 min (Male Wistar rats [2]): 135 ± 20 mg/dL
- Plasma glucose level, 60 min (Male Wistar rats [2]): 129 ± 22 mg/dL
- Plasma glucose level, 90 min (Male Wistar rats [2]): 128 ± 22 mg/dL
- Plasma glucose level, 120 min (Male Wistar rats [2]): 119 ± 15 mg/dL
- ΔAUC of plasma glucose level (Male Wistar rats [2]): 3370 min^− mg/dl
- Plasma glucose level, 0 min (maltase): 89 ± 7 mg/dL
- action to suppress the increase of blood glucose level (maltase): scarcely suppressed
- Plasma glucose level, 30 min (maltase): 139 ± 16 mg/dL
- Plasma glucose level, 60 min (maltase): 157 ± 22 ab mg/dl
- Plasma glucose level, 90 min (maltase): 149 ± 21 mg/dL
- Plasma glucose level, 120 min (maltase): 138 ± 22 mg/dL
- ΔAUC of plasma glucose level (maltase): 6087 min^− mg/dl
